Assay results from patent US20070032502A1, “Quinazoline derivatives useful in cancer treatment” (Schering Corporation, priority 2005, published 2007).
Like-named read-outs stand apart in the source and are kept apart here.

Legend:
MB468 = experiment: Proliferation assay (Calcein AM viability, 72 hours); type: cell-based
Method: This assay measures the growth suppression effects of small molecules in cells with mutant p53 vs. p53 null background. It uses Calcein AM to measure cellular viability. Cells (p53 null and mutant) are harvested and plated at 5000 cells per well in a 96-well tissue culture plate. The volume of cells in growth media is 100 µl. Serial dilutions (2× concentration) of compounds are then made and transferred to the plate of cells. The volume of compounds in the growth media is 100 μL. This dilution of compound with cells gives a 1× final dilution of compound (200 μL total volume). Plates are then incubated at 37° C. for 72 hours. Media is then poured off and Calcein AM is added at the appropriate concentration and the plates are incubated in the dark for 15 minutes and read for fluorescence. […] Compounds having EC50 values of 6 uM or higher have been assigned the letter “D”. These letter rating has been used throughout in the data tables above.

[1] = target: GST-p53 DNA binding domain (aa 92-aa 312) (Homo sapiens, UniProt P04637); experiment: Scintillation Proximity Assay (SPA), displacement of 3H STANDARD COMPOUND; settings: for remaining activity at 2 µg/mL: 1 h
Excerpt: Most of the oncogenic mutants of the tumor suppressor protein p53 lack sequence specific DNA binding activity at physiological temperature due to conformational changes in the DNA binding domain. Small molecules and peptide which bind to the p53 DNA binding domain stabilize the conformation and restore DNA binding activity to mutant p53 protein (Science 286, 2507-2510, 1999; PNAS, 99, 937-942, 2002). Using ^3H STANDARD COMPOUND (which is ^3H of the compound #1 of the present invention; the * Carbon atom is the one labeled; structure shown below), [drawing 2234] a radio labeled small molecule which binds to p53, and the GST-p53 DNA binding domain (aa 92-aa 312), we have developed a quantitative screening assay. The assay is based on Scintillation Proximity Assay (SPA) technology, developed by Amersham Biosciences to measure molecular interactions. Briefly, the complex of GST-p53, ^3H STANDARD and Glutathione-SPA beads (Amersham Biosciences) are incubated with mixing for 1 hr at room temperature in the presence of the novel compounds to be screened. The signal is read on Microbeta. The compounds which have the ability to displace ^3H STANDARD COMPOUND are selected. Such molecules will stabilize the conformation and restore DNA binding activity to mutant p53 protein.
The above assay was used to determine the ability of the compounds of this invention to restore DNA binding activity to mutant p53 and the results for selected compounds have been given above in various tables.
A letter rating corresponding to % Residual total binding (T) @ 2 ug/mL of drug (i.e., compound of the present invention) from this assay have been assigned as follows: Compounds having % Residual T values of from 0% to less than 20% have been assigned the letter “A”. Compounds having % Residual T values of from 20% to less than 40% have been assigned the letter “B”. Compounds having % Residual T values of from 40% to less than 80% have been assigned the letter “C”. Compounds having % Residual T values of 80% or higher have been assigned the letter “D”. The exact % Residual T values @ 2 ug/mL for some illustrative compounds are shown below: […]

pancreatic cells = experiment: Potentiation of growth suppression with temozolomide (proliferation assay, temozolomide IC50); type: cell-based; settings: for IC50: Homo sapiens, TMZ alone
Method: (§1) That the compounds of the present invention potentiate the growth suppression activity of temozolomide is illustrated by the fact that the compounds lower the temolozomide IC50 in various cell lines. The proliferation assay used is similar to that set forth above, and comprises the following general steps. • TMZ is diluted 2 fold in complete medium. • Cells are harvested and placed in each well with diluted TMZ. Cell conc. is 5000 cells per well in complete medium. • Appropriate concentration of compounds of present invention are then added to each well in combination with diluted TMZ. • Plates are incubated at 37° C. for 72 hrs. • Medium is poured off and 50 μL per well of Calcein AM (10 uM is added. Plate is then read in the fluorescent plate reader.
The extent of increase can be quantitated as is shown below in FIG. 5.

[2] = system: Human tumor DLD1 cells containing mutant p53; experiment: Soft agar assay (colony outgrowth); type: cell-based; settings: DLD-1, 10-16 days
Method: This method assesses the ability of cells to grow in the absence of adhesion, which is a characteristic of tumorigenic cell lines.
Human tumor DLD1 cells containing mutant p53 are suspended in growth medium containing 0.3% agarose and an indicated concentration of small molecule. The solution is overlayed onto growth medium solidified with 0.6% agarose containing the same concentration of the small molecule as the top layer. After the top layer is solidified the plates are incubated for 10-16 days at 37° C. under 5% CO2 to allow colony outgrowth. After incubation, colonies are stained by overlaying the agar with a solution of MTT (3-[4,5-dimethyl-thiazol-2-yl]-2,5-diphenyltetrazolium bromide; Thiazolyl blue; […] in PBS). Colonies are counted to measure growth and efficacy of the small molecule.

LN 18 = experiment: Potentiation of growth suppression with temozolomide (proliferation assay, temozolomide IC50), LN 18 glioma cells; type: cell-based; settings: Homo sapiens, p53 mutant, TMZ alone
Method: as §1

U87 = experiment: Potentiation of growth suppression with temozolomide (proliferation assay, temozolomide IC50), U87 glioma cells; type: cell-based; settings: Homo sapiens, U-87 MG, p53 wild, TMZ alone
Method: as §1

[3] = 72 h, MB468 cells, 72 hours, read-out: PROLIFERATION ASSAY EC50 MB468
[4] = MB468 cells, read-out: PROFILE-RATION ASSAY EC50 MB468
[5] = 2 ug/mL of drug, lower is better, read-out: SPA ASSAY % Residual T @ 2 ug/mL of drug (Average of)
[6] = MB468, read-out: PROLIFERATION ASSAY EC50 MB468
[7] = read-out: SPA ASSAY (% residual T @ 2 ug/mL of drug)
[8] = MB168 [sic], read-out: PROFILERATION ASSAY EC50 MB168
[9] = 72 h, MB468 cells, 72 hours, read-out: EC50 rating according to the proliferation assay (MB468)
[10] = 2 ug/mL of drug, lower is better, read-out: % Residual T @ 2 ug/mL rating according to scintillation proximity assay (SPA)

Sequence of GST-p53 DNA binding domain (aa 92-aa 312) (P04637 92-312): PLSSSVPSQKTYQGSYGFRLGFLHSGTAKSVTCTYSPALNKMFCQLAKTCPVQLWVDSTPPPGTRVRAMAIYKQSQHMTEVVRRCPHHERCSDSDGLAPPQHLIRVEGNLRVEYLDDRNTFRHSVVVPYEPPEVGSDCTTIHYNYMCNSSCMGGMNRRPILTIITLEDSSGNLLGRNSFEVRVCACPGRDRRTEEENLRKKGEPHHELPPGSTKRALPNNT

CN(C)CCCNc1nc(CN2CCN(Cc3cccc4ccccc34)CC2)nc2ccccc12 [Example 25-36]
EC50 (MB468; [3]): 2 µM
EC50 (MB468; [4]): 4 to 6 µM
SPA Assay (% residual T @ 2 ug/mL of drug) ([1]; 2 ug/mL of drug): B (Compounds having % Residual T values of from 20% to less than 40% have been assigned the letter “B”)
remaining activity at 2 µg/mL [1, 5]: 27.9%
sensitivity of pancreatic cancer cells to temozolomide (pancreatic cells; in combination with temozolomide, 72 hrs): increase in sensitivity

CN(C)CCCOc1nc(CN2CCN(C(c3ccc(Cl)cc3)c3ccc(Cl)cc3)CC2)nc2ccccc12 [Example 16, [3-(2-{4-[BIS-(4-CHLOROPHENYL)METHYL]PIPERAZIN-1-YLMETHYL}QUINAZOLIN-4-YLOXY)PROPYL]DIMETHYLAMINE]
EC50 (MB468; 72 h, read-out: EC50 rating according to the proliferation assay (MB468)): > 6 µM
remaining activity at 2 µg/mL ([1]; read-out: % Residual T @ 2 ug/mL rating according to scintillation proximity assay (SPA)): > 80%

CCC(C)(C)C1CCC(N2CCN(Cc3nc(NCCCN(C)C)c4ccccc4n3)CC2)C1 (stereo not shown) [Example 25-73]
EC50 (MB468; [4]): 4 to 6 µM
SPA Assay (% residual T @ 2 ug/mL of drug) ([1]; 2 ug/mL of drug): C (Compounds having % Residual T values of from 40% to less than 80% have been assigned the letter “C”)

CN(CCc1ccccn1)c1nc(CN2CCN(C(c3ccc(Cl)cc3)c3ccc(Cl)cc3)CC2)nc2ccccc12 [Example 30-14]
EC50 (MB468; [6]): 4 to 6 µM
remaining activity at 2 µg/mL [1, 7]: > 80%

CN(C)CCCNc1nc(CN2CCN(C(c3ccccc3)c3ccc(OC(F)(F)F)cc3)CC2)nc2ccccc12 (stereo not shown) [Example 11-1]
EC50 (MB468; MB468 cells, 72 hours, read-out: PROLIFERATION ASSAY EC50 MB468): 1.4 µM
remaining activity at 2 µg/mL [1, 5]: 27.9%

CCC(C)(C)C1CCC(N2CCN(Cc3nc(NCCCN(C)C)c4ccccc4n3)CC2)CC1 (stereo not shown) [Example 25-90]
EC50 (MB468; [3]): 2 µM
EC50 (MB468; [4]): 2 to 4 µM
SPA Assay (% residual T @ 2 ug/mL of drug) ([1]; 2 ug/mL of drug): B (Compounds having % Residual T values of from 20% to less than 40% have been assigned the letter “B”)
remaining activity at 2 µg/mL [1, 5]: 38.1%

CCN(CC)C(=O)C1CCCN(c2nc(CN3CCN(C(c4ccc(Cl)cc4)c4ccc(Cl)cc4)CC3)nc3ccccc23)C1 (stereo not shown) [Example 30-25]
EC50 (MB468; [6]): > 6 µM
remaining activity at 2 µg/mL [1, 7]: > 80%

OC1CCN(c2nc(CN3CCN(C(c4ccc(Cl)cc4)c4ccc(Cl)cc4)CC3)nc3ccccc23)CC1 [Example 30-27]
EC50 (MB468; [6]): 4 to 6 µM
remaining activity at 2 µg/mL [1, 7]: > 80%

OC1CCN(c2nc(CN3CCN(C(c4ccc(Cl)cc4)c4ccc(Cl)cc4)CC3)nc3ccccc23)C1 (stereo not shown) [Example 30-4]
EC50 (MB468; [6]): > 6 µM
remaining activity at 2 µg/mL [1, 7]: > 80%

Clc1ccc(C(c2ccc(Cl)cc2)N2CCN(Cc3nc(N4CCOCC4)c4ccccc4n3)CC2)cc1 [Example 30-3]
EC50 (MB468; [6]): > 6 µM
remaining activity at 2 µg/mL [1, 7]: > 80%

Cc1cc(C)c(NC(=O)N2CCN(Cc3nc(NCCCN(C)C)c4ccccc4n3)CC2)c(C)c1 [Example 28-4]
EC50 (MB468; [8]): 4 to 6 µM
SPA ASSAY (% Residual T @ 2 ug/mL of drug (average of)) ([1]; 2 ug/mL of drug): C (Compounds having % Residual T values of from 40% to less than 80% have been assigned the letter “C”)

COc1ccc(NC(=O)N2CCN(Cc3nc(NCCCN(C)C)c4ccccc4n3)CC2)cc1 [Example 28-20]
EC50 (MB468; [8]): > 6 µM
SPA ASSAY (% Residual T @ 2 ug/mL of drug (average of)) ([1]; 2 ug/mL of drug): B (Compounds having % Residual T values of from 20% to less than 40% have been assigned the letter “B”)
remaining activity at 2 µg/mL [1, 5]: 38%

NC(=O)C1CCN(c2nc(CN3CCN(C(c4ccc(Cl)cc4)c4ccc(Cl)cc4)CC3)nc3ccccc23)CC1 [Example 30-28]
EC50 (MB468; [6]): > 6 µM
remaining activity at 2 µg/mL [1, 7]: > 80%

O=C(C1CCCO1)N1CCN(c2nc(CN3CCN(C(c4ccc(Cl)cc4)c4ccc(Cl)cc4)CC3)nc3ccccc23)CC1 (stereo not shown) [Example 30-22]
EC50 (MB468; [6]): > 6 µM
remaining activity at 2 µg/mL [1, 7]: > 80%

O=c1[nH]c2ccccc2n1C1CCN(c2nc(CN3CCN(C(c4ccc(Cl)cc4)c4ccc(Cl)cc4)CC3)nc3ccccc23)CC1 [Example 30-30]
EC50 (MB468; [6]): 4 to 6 µM
remaining activity at 2 µg/mL [1, 7]: 40 to 80%

CN(C)CCCNc1nc(CN2CCN(C(c3ccc(Cl)cc3)c3ccc(Cl)cc3)CC2)nc2ccccc12 [Example 1, N′-(2-{4-[BIS-(4-CHLOROPHENYL)METHYL]PIPERAZIN-1-YLMETHYL}QUINAZOLIN-4-YL)-N,N-DIMETHYLPROPANE-1,3-DIAMINE]
EC50 (MB468; [9]): < 2 µM
EC50 (MB468; [3]): 1.1 µM
IC50 [2]: 0.39 µM
remaining activity at 2 µg/mL [1, 10]: 0 to 20%
remaining activity at 2 µg/mL [1, 5]: 16.1%

CN(C)CCCNc1nc(CN2CCN(Cc3cccc4cc[nH]c34)CC2)nc2ccccc12 [Example 25-29]
EC50 (MB468; [4]): 4 to 6 µM
SPA Assay (% residual T @ 2 ug/mL of drug) ([1]; 2 ug/mL of drug): B (Compounds having % Residual T values of from 20% to less than 40% have been assigned the letter “B”)
remaining activity at 2 µg/mL [1, 5]: 37.9%

Cn1nnc2c(C(N)=O)ncn2c1=O [TMZ, temozolomide]
IC50 (LN 18): 2700 µM
IC50 (pancreatic cells; MIA PaCa-2, Miapaca-2, Pancreas, p53 mutant): 3320 µM
IC50 (pancreatic cells; Capan-1, Pancreas, p53 mutant): 2860 µM
IC50 (pancreatic cells; Capan-2, Pancreas, p53 wild): 4310 µM
IC50 (U87): 2540 µM

COC(=O)C1CCN(c2nc(CN3CCN(C(c4ccc(Cl)cc4)c4ccc(Cl)cc4)CC3)nc3ccccc23)CC1 [Example 30-29]
EC50 (MB468; [6]): 4 to 6 µM
remaining activity at 2 µg/mL [1, 7]: > 80%

CN(C)CCCNc1nc(CN2CCN(C(=O)Nc3ccc(C#N)cc3)CC2)nc2ccccc12 [Example 28-13]
EC50 (MB468; [8]): > 6 µM
SPA ASSAY (% Residual T @ 2 ug/mL of drug (average of)) ([1]; 2 ug/mL of drug): C (Compounds having % Residual T values of from 40% to less than 80% have been assigned the letter “C”)

CN(C)CCCNc1nc(CN2CCN(C(=O)Nc3ccc(Cl)c(Cl)c3)CC2)nc2ccccc12 [Example 28-39]
EC50 (MB468; [8]): 4 to 6 µM
SPA ASSAY (% Residual T @ 2 ug/mL of drug (average of)) ([1]; 2 ug/mL of drug): B (Compounds having % Residual T values of from 20% to less than 40% have been assigned the letter “B”)
remaining activity at 2 µg/mL [1, 5]: 29.9%

CN(C)CCCNc1nc(CN2CCN(C(c3ccccc3)c3ccc(OC(F)(F)F)cc3)CC2)nc2ccccc12 (single isomer, unassigned; (+)) [11 isomer 1, (+)-N,N-DIMETHYL-N′-[2-{4-[PHENYL-(4-TRIFLUOROMETHOXYPHENYL)METHYL]-PIPERAZIN-1-YLMETHYL}QUINAZOLIN-4-YL]PROPANE-1,3-DIAMINE]
EC50 (MB468; [9]): < 2 µM
remaining activity at 2 µg/mL [1, 10]: 20 to 40%
